Reference: US20200131144A1, “AMINE OR (THIO)AMIDE CONTAINING LXR MODULATORS” (Phenex-FXR GmbH, priority 2017, published 2020)

Key:
[1] = target: T1, GST-LXRβ ligand-binding domain (Homo sapiens, UniProt P55055, INS174Q); experiment: TR-FRETβ activity assay (NCoA3 coactivator peptide recruitment); format: biochemical; details: 1 μM 24(S)-25-epoxycholesterol as prestimulating agonist; inverse agonist unless *
T1 construct: amino acids 156-461; NP009052; made in house; host or cells: E. coli
T1 sequence (P55055 with tags, fused parts or gaps INS174Q limits assumed): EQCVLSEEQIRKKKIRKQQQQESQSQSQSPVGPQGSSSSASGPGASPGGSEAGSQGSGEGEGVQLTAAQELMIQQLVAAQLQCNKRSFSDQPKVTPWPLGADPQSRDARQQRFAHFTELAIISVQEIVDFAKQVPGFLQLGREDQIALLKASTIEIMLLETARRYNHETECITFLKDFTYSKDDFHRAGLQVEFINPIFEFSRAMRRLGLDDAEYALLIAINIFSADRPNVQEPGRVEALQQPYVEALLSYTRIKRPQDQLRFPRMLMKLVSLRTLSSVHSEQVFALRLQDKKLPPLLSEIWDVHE
Outline: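 Coactivator recruitment read as TR-FRET (ex 340, em 615 and 665 nm) after 1 h equilibration at 4° C, in triplicate. Mix held 76 nM GST-tagged LXRβ LBD (aa 156-461, E. coli), 400 nM biotin-NCoA3 peptide, Tb-cryptate anti-GST, streptavidin-XL665, 240 mM KCl buffer.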

[2] = target: T2, LXRα full length (FL) (Homo sapiens, UniProt Q13133); experiment: LXR Gal4 reporter transient transfection assay, mammalian two-hybrid, FL-M2H Gal4α; format: cell-based; details: HEK293 cells; inverse agonist unless *
T2 construct: the full length (FL) proteins of LXRα (amino acids 1-447); NP005684; expressed in transfected cells; host or cells: HEK293
T2 sequence (Q13133 1-447): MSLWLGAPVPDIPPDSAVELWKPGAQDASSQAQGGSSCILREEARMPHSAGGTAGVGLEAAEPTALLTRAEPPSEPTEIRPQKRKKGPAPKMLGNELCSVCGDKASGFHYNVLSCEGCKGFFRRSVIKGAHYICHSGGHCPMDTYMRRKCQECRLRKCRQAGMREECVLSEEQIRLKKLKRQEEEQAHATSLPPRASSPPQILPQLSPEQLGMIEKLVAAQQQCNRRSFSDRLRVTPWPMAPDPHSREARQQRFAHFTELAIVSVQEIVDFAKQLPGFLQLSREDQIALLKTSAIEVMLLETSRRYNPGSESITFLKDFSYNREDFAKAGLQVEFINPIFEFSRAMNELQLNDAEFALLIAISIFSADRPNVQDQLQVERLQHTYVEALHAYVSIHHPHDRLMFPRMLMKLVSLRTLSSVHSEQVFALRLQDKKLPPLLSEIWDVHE
Outline: (§1)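 Mammalian two-hybrid read-out: interaction of LXRα or LXRβ (full length or ligand-binding domain, NFkB activation-domain fusions) with GAL4-fused SRC1 or NCoR domains drives GAL4-responsive firefly luciferase in HEK293 cells, normalised by Renilla cotransfection. Compounds given 4 h after transfection, ≤0.2% vehicle, cells lysed after 16 h.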

[3] = target: T3, LXRβ full length (FL) (Homo sapiens, UniProt P55055, INS174Q); experiment: LXR Gal4 reporter transient transfection assay, mammalian two-hybrid, FL-M2H Gal4β; format: cell-based; details: HEK293 cells; inverse agonist unless *
T3 construct: the full length (FL) proteins of LXRα (amino acids 1-447); NP005684; NP009052; expressed in transfected cells; host or cells: HEK293
T3 sequence (P55055 with tags, fused parts or gaps INS174Q): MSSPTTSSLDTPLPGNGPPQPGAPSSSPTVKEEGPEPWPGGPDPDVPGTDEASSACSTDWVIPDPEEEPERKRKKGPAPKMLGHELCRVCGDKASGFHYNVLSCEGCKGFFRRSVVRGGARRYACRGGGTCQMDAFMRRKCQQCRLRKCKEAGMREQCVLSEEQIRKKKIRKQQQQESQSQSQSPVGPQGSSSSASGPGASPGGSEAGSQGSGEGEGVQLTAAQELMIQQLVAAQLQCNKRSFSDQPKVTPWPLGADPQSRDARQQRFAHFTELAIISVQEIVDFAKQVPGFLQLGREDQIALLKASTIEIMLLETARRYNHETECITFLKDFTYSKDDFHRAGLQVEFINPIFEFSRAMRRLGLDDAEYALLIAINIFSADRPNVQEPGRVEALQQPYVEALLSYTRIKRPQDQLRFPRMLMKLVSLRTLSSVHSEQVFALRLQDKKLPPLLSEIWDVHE
Outline: as §1

EC50 [1] | EC50 [2] | EC50 [3] | Structure (SMILES)
100 to 1000 nM | 100 to 1000 nM | 100 to 1000 nM | Cc1cc(C)c(CN(Cc2ccc(-c3cccc(S(=O)(=O)CC(=O)NO)c3)cc2)Cc2ccc(C(F)(F)F)o2)c(C)c1 [Example 5, N-Hydroxy-2-((4′-((((5-(trifluoromethyl)furan-2-yl)methyl)(2,46-trimethylbenzyl)amino)methyl)-[1,1′-biphenyl]-3-yl)sulfonyl)acetamide]
100 to 1000 nM | 100 to 1000 nM | 100 to 1000 nM | CONC(=O)CS(=O)(=O)c1cccc(-c2ccc(CN(Cc3ccc(C(F)(F)F)o3)Cc3c(C)cc(C)cc3C)cc2)c1 [Example 5/1]
1000 to 10000 nM | 100 to 1000 nM | 100 to 1000 nM | Cc1cc(C)c(CN(Cc2ccc(C(F)(F)F)o2)Cc2ccc(-c3cccc(S(=O)(=O)CC(=O)O)c3)cc2F)c(C)c1 [Example 15, 2-((3′-Fluoro-4′-((((5-(trifluoromethyl)furan-2-yl)methyl)(2,4,6-trimethylbenzyl)amino)methyl)-[1,1′-biphenyl]-3-yl)sulfonyl)acetic acid]
> 10000 nM | 1000 to 10000 nM | 100 to 1000 nM | Cc1ccc2ccccc2c1C(=O)N(Cc1ccc(C(F)(F)F)o1)Cc1ccc(-c2cccc(C(C)(C)C(=O)O)c2)cc1C(N)=O [Example 17]
> 10000 nM | 1000 to 10000 nM | 100 to 1000 nM | COc1cc(CN(Cc2ccc(C(F)(F)F)o2)Cc2c(C)ccc3ccccc23)ccc1-c1cc(F)c(CO)c(S(=O)(=O)CC(=O)O)c1 [Example 22, 2-((5-Fluoro-4-(hydroxymethyl)-2′-methoxy-4′-((((2-methylnaphthalen-1-yl)methyl)((5-(trifluoromethyl)furan-2-yl)methyl)amino)methyl)-[1,1′-biphenyl]-3-yl)sulfonyl)acetic acid]
> 10000 nM | 100 to 1000 nM | 1000 to 10000 nM | Cc1ccc2ccccc2c1C(=O)N(Cc1ccc(-c2cccc(S(=O)(=O)CC(=O)O)c2)cc1)Cc1ccc(C(F)(F)F)n1C [Example 28, 2-((4′-((2-Methyl-N-((1-methyl-5-(trifluoromethyl)-1H-pyrrol-2-yl)methyl)-1-naphthamido)methyl)-[1,1′-biphenyl]-3-yl)sulfonyl)acetic acid]
100 to 1000 nM | < 100 nM | < 100 nM | Cc1ccc2ccccc2c1C(=O)N(Cc1ccc(-c2cccc(C(C)(C)c3noc(=O)[nH]3)c2)cc1)Cc1ccc(C(F)(F)F)o1 [Example 29, 2-Methyl-N-((3′-(2-(5-oxo-4,5-dihydro-1,2,4-oxadiazol-3-yl)propan-2-yl)-[1,1′-biphenyl]-4-yl)methyl)-N-((5-(trifluoromethyl)furan-2-yl)methy)-1-naphthamide]
100 to 1000 nM | 100 to 1000 nM | 100 to 1000 nM | Cc1ccc2ccccc2c1C(=O)N(Cc1ccc(-c2cccc(S(=O)(=O)Cc3nnn[nH]3)c2)cc1)Cc1ccc(C(F)(F)F)o1 [Example 30, N-((3′-(((1H-Tetrazol-5-yl)methyl)sulfonyl)-1,1′-biphenyl-4-yl)methyl)-2-methyl-N-((5-(trifluoromethyl)furan-2-yl)methyl)-1-naphthamide]
1000 to 10000 nM | < 100 nM | < 100 nM | CCOC(=O)OC(OC(=O)C(C)(C)c1cccc(-c2ccc(CN(Cc3ccc(C(F)(F)F)o3)C(=O)c3c(C)ccc4ccccc34)cc2)c1)C(C)C (stereo not drawn) [Example 31, 1-((Ethoxycarbonyl)oxy)-2-methylpropyl 2-methyl-2-(4′-((2-methyl-N-((5-(trifluoromethyl)furan-2-yl)methyl)-1-naphthamido)methyl)-[1,1′-biphenyl]-3-yl)propanoate]
> 10000 nM | 100 to 1000 nM | 100 to 1000 nM | CNc1nc(-c2cccc(C(C)(C)C(=O)O)c2)ccc1CN(Cc1ccc(C(F)(F)F)o1)C(=O)c1c(C)ccc2ccccc12 [Example 32, 2-Methyl-2-(3-(5-((2-methyl-N-((5-(trifluoromethyl)furan-2-yl)methyl)-1-naphthamido)methyl)-6-(methylamino)pyridin-2-yl)phenyl)propanoic acid]
